{"source": "patent US20020090619A1", "about": "“Methods for identifying mitochondrial divalent cation transporters” (priority 2000, published 2002)", "key": {"[1]": {"tested_on": "isolated yeast mitochondria", "assay": "Ca2+ transport in isolated yeast mitochondria expressing aequorin (luminescence)", "assay_type": "biochemical, Saccharomyces cerevisiae", "conditions": "FIG. 24", "protocol": "For preculture, the transformant was inoculated into 50 ml of SC-U plus 2% glucose, and incubated in an air shaker at 180 rpm and 30° C. At 24 hr, the preculture was transferred to 500 ml of a medium containing 1% yeast extract, 2% peptone, 2% lactate, 1% galactose, 0.012% adenine, pH 5 w/NaOH, and growth was continued under conditions which were otherwise the same. Cells were harvested after an additional 24 hr, spheroplasts were prepared using zymolyase, and mitochondria were isolated by the method of Daum et al. (1982) as previously described (Jung et al., 1997). The final pellet was resuspended at ˜20 mg protein/ml in 0.6 M mannitol, 20 mM HEPES (K^+ salt, pH 6.8). Apoaequorin in the intact or disrupted mitochondria was reconstituted by incubation with coelenterazine as described above for cells.\nFor most experiments, the mitochondria were present at 0.4 mg protein/ml in a standard medium that contained 0.3 M KCl, 20 mM HEPES, (K^+ salt, pH 7.10), 10 mM KH2PO4, 2 mM EGTA, and 2 mM MgCl2. Other additions are described in greater detail below. Ca^2+ buffers were formed by adding various amounts of CaCl2 to this EGTA containing medium. The free Ca^2+ concentrations which resulted were calculated using a computer program (Brooks et al., 1992 Anal. Biochem. 201:119).\nLuminescence measurements were carried out in 6×50 mm culture tubes, using a total volume of 0.3 ml, and were started by injection of 5-20 μl of mitochondria or cells. A SAI model 3000 integrating photometer was employed, with AJD sampling at 0.4 seconds intervals driven by Asyst software. Values were transformed into corresponding Ca^2+ concentrations by computer assisted calculations based upon published calibration methods (Allen et al., 1977 Science 195:996; Brini et al., 1995 J. Biol. Chem. 270:9896). For each value, the ratio of observed luminescence (L) to the potential luminescence remaining (Lmax) was calculated, and compared to a calibration curve which relates this ratio to the free Ca^2+ concentration. Thus, complete calibrated progress curves were generated. The total luminescence available initially (Ltotal) must be known and was determined in separate experiments, wherein a saturating Ca^2+ concentration (20 μM) is employed to discharge the aequorin completely. This value allows Lmax to be calculated at any time, as Ltotal minus the sum of luminescence that already occurred.\nThe calibration data were obtained at an ionic strength of 335 mM and in the presence of 1 mM Mg^2+, to mimic conditions in the mitochondrial matrix, because both factors influence the affinity of aequorin for Ca2+ (Cobbold et al., 1987 Biochem. J. 248:313). Luminescence values were corrected for low background values that are obtained when Ca^2+ is absent before conducting further calculations."}, "[2]": {"tested_on": "Saccharomyces cerevisiae strain K473", "assay": "Growth inhibition by Ca2+ of pmc1 mutant yeast", "assay_type": "cell-based", "conditions": "YPD medium, 30° C., 22 hr; read-out: 50% decrease in relative growth (IC50)", "protocol": "This example describes growth inhibition by Ca^2+ of Saccharomyces cerevisiae strain K473, a pmc1 mutant lacking function in a vacuolar Ca2+ ATPase (Cunningham et al., 1996, Molec. Cell. Biology 16:2226-37; Cunningham et al., 1994 J. Cell Biol. 124:351-363). The strain was grown at 30° C. on standard YPD medium supplemented with 0, 50, 100, 200 or 300 mM CaCl2, as indicated. […]"}, "yeast mitochondria [3]": {"tested_on": "yeast mitochondria", "assay": "Membrane potential ΔΨ of isolated yeast mitochondria (safranin O)", "assay_type": "biochemical, Saccharomyces cerevisiae", "protocol": "(§1) The yeast strain W303-1A (Saccharomyces cerevisiae) was grown aerobically at 30° C. in a medium containing 2% lactate, 1% yeast extract, 2% peptone, 0.05% dextrose, and 0.01% adenine at pH 5.0, and cells were harvested during the logarithmic phase (A600=1.8−2.2). Mitochondria were isolated from spheroplasts as previously described (Jung et al., 1997 J. Biol. Chem. 272:21104), except that 0.6 M sucrose was used in the homogenization medium instead of 0.6 M mannitol (Daum et al., 1982 J. Biol. Chem. 257:13028). The resulting preparations were maintained on ice and were suspended in 0.6 M mannitol 20 mM HEPES (K+) (pH 6.8), containing 0.75 mg/ml BSA and 0.1 mM EGTA. Protein concentration was determined by a reduced volume Biuret method in which 50 μl of the final preparation were solubilized by adding an equal volume of 10% deoxycholate (Na+), with 0.4 ml of Biuret reagent added to the resulting mixture. BSA was employed as the standard.\nUnless otherwise noted, mitochondria were incubated at 1 mg protein/ml and at approximately 25° C. in a medium that contained 0.6 M mannitol, 10 mM Pi (K+), 10 mM Hepes (TEA+), pH 7.2, plus 1 mM ethanol as an oxidizable substrate. Compounds having a low solubility in water were added from stock solutions prepared in methanol or DMSO. Ca2+ transport and membrane potential were monitored using the indicating dyes antipyrylazo III (ΔA720-790) and safranin O (ΔA511-533), respectively (Akerman et al., 1976 FEBS Lett. 68:191; Scarpa et al., 1978 Biochem. 17:1378). An SLM Aminco DW-2C spectrophotometer operated in the dual wavelength mode was employed for these purposes. The same instrument, operated in split beam mode, was used to monitor mitochondrial swelling as a decrease in apparent absorbance of mitochondrial suspensions at 540 nm. Oxygen consumption data were obtained using a Clark-type electrode in parallel experiments. Atomic absorption spectroscopy was utilized to monitor the transport of other cations by yeast mitochondria. Briefly, samples were taken at appropriate times and the mitochondria were rapidly sedimented in a microcentrifuge. After carefully removing supernatants, the pellets were solubilized with 2 N percholoric acid (overnight) and centrifuged a second time. The resulting supernatants were diluted with an appropriate volume of distilled water and the concentration of the cation in question was subsequently determined."}, "[4]": {"tested_on": "PMC1/PMR1 double ATPase mutant cells", "conditions": "Cunningham et al., 1994; cited from earlier work"}, "yeast mitochondria [5]": {"tested_on": "yeast mitochondria", "assay": "ETH 129 mediated Ca2+ transport in isolated yeast mitochondria (antipyrylazo III)", "assay_type": "biochemical, Saccharomyces cerevisiae", "conditions": "BSA 0.5 mg/ml, 60 μM CaCl2, 3.6 μM ETH 129, increasing oleate, FIG. 14", "protocol": "as §1, with “BSA was employed as the standard.” left out\nUnless otherwise noted, mitochondria were incubated at 1 mg protein/ml and at approximately 25° C. in a medium that contained 0.6 M mannitol, 10 mM Pi (K+), 10 mM Hepes (TEA+), pH 7.2, plus 1 mM ethanol as an oxidizable substrate. […] Ca2+ transport and membrane potential were monitored using the indicating dyes antipyrylazo III (ΔA720-790) and safranin O (ΔA511-533), respectively (Akerman et al., 1976 FEBS Lett. 68:191; Scarpa et al., 1978 Biochem. 17:1378). […]"}, "[6]": {"assay": "ETH 129 mediated cation transport into Quin-2 loaded POPC vesicles", "assay_type": "biochemical", "conditions": "1.0 mM CaCl2, no Val, FIG. 5", "protocol": "Unilamellar vesicles loaded with Quin-2 were prepared from 1-palmitoyl-2-oleoyl-sn-glycerophosphatidylcholine (POPC) by freeze-thaw extrusion (Erdahl et al., 1994 Biophys. J. 66:1678; Erdahl et al., 1995 Biophys. J. 69:2350). The formation medium contained 5 mM Quin-2 (K+), 10 mM Hepes (K+), pH 7.00, and 100 mM KCl. A high internal K+ concentration was sought to allow the generation of membrane potentials of varying magnitude (see below). The preparations obtained were applied to Sephadex™ G-50 mini-columns (Pharmacia, Piscataway N.J.) and eluted by low speed centrifugation (Fry et al., 1978 Anal. Biochem. 90:809), to replace the external medium with a 10 mM Hepes buffer (Na+), pH 7.00 (Erdahl et al., 1994 Biophys. J. 66:1678; Erdahl et al., 1995 Biophys. J. 69:2350). The nominal concentration of POPC in final preparations was determined as lipid phosphorus (Bartlett, 1959 J Biol. Chem. 234:466) and was near 80 mM. The average diameter of these vesicles was 71 nm as determined by freeze-fracture electron microscopy (Chapman et al., 1990 Chem. Phys. Lipids 55:73). They contained entrapped K+ at approximately 125 mM, as determined by atomic absorption spectroscopy, and Quin-2 at approximately 6 mM. The latter value was determined by titrating lysed vesicles with a standard solution of CaCl2 and was about one third of the expected value (Erdahl et al., 1995 Bipohys. J. 69:3250). The high solute level in the formation medium reduced the efficiency of Quin-2 entrapment by reducing the effectiveness of a freeze-thaw driven solute concentrating mechanism that normally elevates the internal concentrations of solutes, relative to the external medium (Chapman et al., 1990 Chem. Phys. Lipids 55:73; Chapman et al., 1990 Chem. Phys. Lipids 60:201).\nPOPC vesicles containing Quin-2 were utilized at a nominal phospholipid concentration of 1.0 mM, and at 25° C. The external medium contained polyvalent cation salts as described below, 100 mM NaCl, or mixtures of NaCl and KCl totaling […], and 10 mM Hepes, pH 7.00, unless otherwise noted. The medium pH was adjusted with NaOH that had been passed over Chelex 100 columns to remove contaminating cations (Erdahl et al., 1994 Biophys. J. 66:1678). In most cases an inside negative membrane electrical potential was present during the experiments. This was generated by the presence of 0.5 μM valinomycin (Val), which transports K+ out of the vesicles electrogenically (Erdahl et al., 1994 Biophys. J. 66:1678). The magnitude of the potential was controlled by varying the concentration ratio of Na+ to K+ in the external medium. A TPP+electrode was used to measure the potential (Broekemeier et al, 1998 Biochem. 37:13059), and thereby to verify that the calculated values were obtained. For these purposes the incubation medium contained 2.0 μM TPP.Cl and the entrapped volume was taken to be 2.02 μl/ml at a nominal POPC concentration of 1.0 mM (Chapman et al., 1990 Chem. Phys. Lipids 55:73).\nVal was omitted when an imposed membrane potential was not desired, or in some cases 5 μM of the protonophore carbonyl cyanide m-chlorophenylhydrazone (CCP) was present instead of Val.\nThe transport of polyvalent cations was monitored by difference absorbance measurements which detected formation of the Quin-2:cation complex within the vesicle lumen. An Aminco DW2a spectrophotometer operated in the dual wavelength mode was employed. In addition, an Oriel No. 59800 band pass filter was used between the cuvette and the beam scrambler-photomultiplier assembly to prevent detection of the fluorescent light emitted by Quin-2. The sample wavelength for all cations was 264 nm. The reference wavelengths were at an isosbestic point in the Quin-2/Quin-2:cation complex difference spectrum of interest. These wavelengths varied slightly from cation to cation, as previously described (Erdahl et al., 1996 Biochem. 35:13817). […]"}}}
{"compound": "[Ca+2]", "note": "[Ca2+]", "values": [{"measurement": "external Ca2+ giving half-maximal rate of change in matrix Ca^2+", "setting": "[1]; nonrespiring mitochondria", "result": 0.82, "unit": "µM"}, {"measurement": "external Ca2+ giving half-maximal rate of change in matrix Ca^2+", "setting": "[1]; respiring mitochondria (0.5 mM ethanol)", "result": 1.0, "unit": "µM"}, {"measurement": "IC50", "setting": "[2]", "result": 92, "unit": "mM"}, {"measurement": "effect on ΔΨ, agent alone", "setting": "yeast mitochondria [3]; BSA absent, FIG. 11B", "result": "little effect"}, {"measurement": "cytostatic Ca^2+ concentrations", "setting": "[4]", "result": "≤ 300", "unit": "µM"}]}
{"compound": "CCCCCCCC/C=C\\CCCCCCCC(=O)O", "note": "[oleate, oleic acid]", "values": [{"measurement": "effect of exogenous oleate on ETH 129 mediated Ca2+ accumulation", "setting": "yeast mitochondria [5]", "result": "first inhibited further accumulation and then caused a reversal of the transport that had already occurred"}, {"measurement": "activation of ETH 129 mediated Ca2+ transport", "setting": "[6]", "result": "inability of oleate (a lipophilic fatty acid anion) to substitute for CCP"}, {"measurement": "suppression of ΔΨ during titration with exogenous oleate", "setting": "yeast mitochondria [3]; ETH 129, free Ca2+ and BSA available, no EGTA, FIG. 16", "result": "began immediately"}, {"measurement": "oleate level above which ΔΨ is depressed", "setting": "yeast mitochondria [3]; excess EGTA (2 mM), ETH 129, CaCl2, BSA present, FIG. 16", "result": "exceeded 15 nmol/mg protein"}]}
